Assay results published in paper PMC12445744, “Molecular docking to homology models of human and Trypanosoma brucei ERK8 that identified ortholog-specific inhibitors” (PLOS Neglected Tropical Diseases, 2025).
“And” between values parts separate entries of the source, which are not always exact repeats. Identical values can stand only once.

Biological target: T1, HsERK8 (Homo sapiens, UniProt Q8TD08)
T1 construct: plasmid pGEX2T expressing the full-length hERK8 coding region; made in house; host or cells: Escherichia coli Rosetta 2 (DE3)
T1 sequence (Q8TD08 1-544): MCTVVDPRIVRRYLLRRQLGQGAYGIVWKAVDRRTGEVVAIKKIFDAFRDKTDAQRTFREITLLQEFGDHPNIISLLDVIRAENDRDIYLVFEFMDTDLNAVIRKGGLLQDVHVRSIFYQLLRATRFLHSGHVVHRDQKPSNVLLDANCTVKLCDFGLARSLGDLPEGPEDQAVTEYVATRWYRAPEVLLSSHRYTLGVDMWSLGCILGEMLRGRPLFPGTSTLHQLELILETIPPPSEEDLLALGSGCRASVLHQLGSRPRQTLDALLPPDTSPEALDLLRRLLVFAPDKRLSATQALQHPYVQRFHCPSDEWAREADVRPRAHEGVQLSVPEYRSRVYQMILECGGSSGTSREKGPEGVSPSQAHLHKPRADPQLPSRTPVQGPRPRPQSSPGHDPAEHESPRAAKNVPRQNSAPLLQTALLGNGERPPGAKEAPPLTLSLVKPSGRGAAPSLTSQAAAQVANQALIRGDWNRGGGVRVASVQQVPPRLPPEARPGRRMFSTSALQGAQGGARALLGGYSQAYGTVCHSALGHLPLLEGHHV
Assay: Luciferase-based kinase inhibition assay (ATP luminescence), GST-tagged HsERK8 with MBP substrate
Type: biochemical
Settings: for raw luminescence, HsERK8: replicate wells; for Luminescence Raw (Kinase-Glo): HsERK8
Method: Escherichia coli strain Rosetta 2 (DE3) (Cat# 71397, MilliporeSigma, Burlington, MA) was transformed with the plasmid pGEX2T expressing the full-length hERK8 coding region or pGSTAg expressing the full-length TbERK8 coding region. One liter of Terrific Broth media containing 100 μg/ml Ampicillin and 30 μg/ml chloramphenicol in 2 L baffled flasks was inoculated with 25 mL from an overnight culture of Rosetta 2 strains harboring either the pGEX2T-hERK8 or pGSTAg-TbERK8 plasmid. Two baffled flasks were inoculated with each overnight strain and incubated and shaken at 175 RPM in a New Brunswick Innova 44R Incubator Shaker (Fischer Scientific, Pittsburgh, PA) at 37 °C until the cultures reached an O.D.600 of 0.94. Once the cultures in the flask reached the target O.D.600, the flasks were cooled to 4 °C in an ice water bath. The cooled cultures were induced by adding isopropyl β-D-1-thiogalactopyranoside (IPTG) to a final concentration of 0.1 mM and shaken at 16 °C for 16 hours at 175 RPM in a New Brunswick Innova 44R Incubator Shaker (Fischer Scientific, Pittsburgh, PA). On the next day, the cultures were pelleted by centrifugation at 9000 xg in a JLA 10.500 rotor (Beckman Coulter; Brea, CA), and the media was decanted. The pellet was flash-frozen in liquid nitrogen and then thawed on ice. The thawed pellet was resuspended in lysis buffer (25 mM Tris, 75 mM NaCl, 0.5% TritonX-100 and 0.5% Nonidet P-40, 1 mM phenylmethanesulfonyl fluoride, 1 mM benzamidine⋅HCl) and lysed using a microfluidizer M-110P from Microfluidics (Westwood, MA). The crude lysates were clarified by centrifugation at 140,000 xg in a 45Ti rotor (Beckman Coulter, Brea, CA) for 30 min at 4°C. The clarified lysate was loaded by gravity to a 3 mL glutathione agarose resin column (Cat# G-250–10, GOLDBIO, St. Louis, MO) formed in a 1.5 × 20 cm glass chromatography column (Cat# 7371522, Bio-Rad, Hercules, CA). The column was washed with 30 mL of PBS (pH 7.4) containing 1 mM DTT. Elution buffer (50 mM Tris buffer pH 8.0 containing 10 mM reduced glutathione and 1 mM DTT was added to the washed column), and 1 mL fractions were collected by gravity and examined by SDS-PAGE stained by Coomassie dye. Peak fractions pooled from the elution were dialyzed (4x 1:500 dilutions) in kinase buffer (30 mM Tris, pH 7.4, 10 mM MgCl2, 1 mM DTT, 5% glycerol).
We performed kinase assays in buffer K (30 mM Tris pH 7.4, 10 mM MgCl2, 1 mM DTT, 5% glycerol, 50 μM ATP, and 0.1 mg/mL BSA) at 30°C for 30 min in 30 μL reactions. GST-tagged HsERK8 and TbERK8 were tested using myelin basic protein (MBP) (Cat# 13–110, Millipore, Darmstadt, Germany) as the substrate at increasing concentrations to determine the optimal activity for the assay. ATP consumption was determined by adding equal volumes of the kinase assay reagent (Promega, Cat# V5601, Madison, WI) following the manufacturer’s protocol. Luminescence was measured using the microplate reader (SpectraMax L, Molecular Devices, Sunnyvale, CA).
These compounds were screened for kinase inhibition utilizing a luciferase-based assay. Briefly, the kinases were tested using MBP as the substrate at a 14-fold molar excess in 384-well flat-bottom white plates (BRANDTECH Scientific, Cat# 781681, Essex, CT). These compounds were tested at concentrations ranging from […] to 150 nM. The kinases plus MBP substrate reactions were incubated with each inhibitor for 30 minutes at 30°C. Equal volumes of kinase assay mix Promega (Cat# V5601, Madison, WI) were added to the kinase/inhibitor reaction after 30 minutes, following the manufacturer’s protocol. ATP luminescence was measured using a microplate reader (SpectraMax L, Molecular Devices, Sunnyvale, CA). IC50 values were calculated from assays done in triplicate by fitting the data using Prism 8.1.1 (GraphPad).

C[C@]12C=CC(=O)C=C1CC[C@@H]1[C@@H]2[C@@H](O)C[C@@]2(C)[C@H]1CC[C@]2(O)C(=O)CO [Prednisolone]
IC50: 300 µM | raw luminescence, HsERK8 (0.00015 mM compound, sheet ADP_ATP_glo081724 (3)): 2318.43 RLU and 2379.5 RLU and 1359.39 RLU | raw luminescence, HsERK8 (0.00015 mM compound, sheet Kinase_glo 08142024 (2)): 11527 RLU and 11136 RLU and 8980.24 RLU | raw luminescence, HsERK8 (0.00015 mM compound, sheet Kinase_glo_080924_IFPS (2)): 3541.75 RLU and 3582.18 RLU and 3076.85 RLU | raw luminescence, HsERK8 (0.00061 mM compound, sheet ADP_ATP_glo081724 (3)): 2825.09 RLU and 2949.5 RLU and 2422.48 RLU | raw luminescence, HsERK8 (0.00061 mM compound, sheet Kinase_glo 08142024 (2)): 11527 RLU and 11503.8 RLU and 9669.24 RLU | raw luminescence, HsERK8 (0.00061 mM compound, sheet Kinase_glo_080924_IFPS (2)): 3770.83 RLU and 3829.22 RLU and 3330.64 RLU | raw luminescence, HsERK8 (0.00244 mM compound, sheet ADP_ATP_glo081724 (3)): 3720.8 RLU and 3505.92 RLU and 3191.52 RLU | raw luminescence, HsERK8 (0.00244 mM compound, sheet Kinase_glo 08142024 (2)): 11998.3 RLU and 11782.7 RLU and 9967.25 RLU | raw luminescence, HsERK8 (0.00244 mM compound, sheet Kinase_glo_080924_IFPS (2)): 4143.65 RLU and 4112.2 RLU and 3658.53 RLU | raw luminescence, HsERK8 (0.00977 mM compound, sheet ADP_ATP_glo081724 (3)): 3641.63 RLU and 3797.7 RLU and 3386.04 RLU | raw luminescence, HsERK8 (0.00977 mM compound, sheet Kinase_glo 08142024 (2)): 11620 RLU and 11670.7 RLU and 9100.71 RLU | raw luminescence, HsERK8 (0.00977 mM compound, sheet Kinase_glo_080924_IFPS (2)): 4774.74 RLU and 5053.23 RLU and 4529.94 RLU | raw luminescence, HsERK8 (0.03906 mM compound, sheet ADP_ATP_glo081724 (3)): 4824.6 RLU and 4808.77 RLU and 4191.27 RLU | raw luminescence, HsERK8 (0.03906 mM compound, sheet Kinase_glo 08142024 (2)): 13839.2 RLU and 14168.9 RLU and 11317.8 RLU | raw luminescence, HsERK8 (0.03906 mM compound, sheet Kinase_glo_080924_IFPS (2)): 7209.85 RLU and 6169.43 RLU and 7796.61 RLU | raw luminescence, HsERK8 (0.15625 mM compound, sheet ADP_ATP_glo081724 (3)): 6885.18 RLU and 7183.74 RLU and 7394.1 RLU | raw luminescence, HsERK8 (0.15625 mM compound, sheet Kinase_glo 08142024 (2)): 27241.9 RLU and 27273.6 RLU and 25587 RLU | raw luminescence, HsERK8 (0.15625 mM compound, sheet Kinase_glo_080924_IFPS (2)): 10574.2 RLU and 11234.5 RLU and 10315.9 RLU | raw luminescence, HsERK8 (0.62500 mM compound, sheet ADP_ATP_glo081724 (3)): 8751.23 RLU and 9074.68 RLU and 6998.27 RLU | raw luminescence, HsERK8 (0.62500 mM compound, sheet Kinase_glo 08142024 (2)): 32595.4 RLU and 32278.4 RLU and 37446.9 RLU | raw luminescence, HsERK8 (0.62500 mM compound, sheet Kinase_glo_080924_IFPS (2)): 11504.5 RLU and 12982.8 RLU and 12069.3 RLU | raw luminescence, HsERK8 (2.50000 mM compound, sheet ADP_ATP_glo081724 (3)): 11083.2 RLU and 11176 RLU and 9323.49 RLU | raw luminescence, HsERK8 (2.50000 mM compound, sheet Kinase_glo 08142024 (2)): 34732.1 RLU and 34810.3 RLU and 30135.3 RLU | raw luminescence, HsERK8 (2.50000 mM compound, sheet Kinase_glo_080924_IFPS (2)): 16242.2 RLU and 17136.1 RLU and 14690.3 RLU | raw luminescence, HsERK8 (10.00000 mM compound, sheet ADP_ATP_glo081724 (3)): 12580.6 RLU and 13211.7 RLU and 13399.4 RLU | raw luminescence, HsERK8 (10.00000 mM compound, sheet Kinase_glo 08142024 (2)): 37851.6 RLU and 37726.9 RLU and 37092.9 RLU | raw luminescence, HsERK8 (10.00000 mM compound, sheet Kinase_glo_080924_IFPS (2), signal = ATP left): 19715.5 RLU and 19196.1 RLU and 19703.2 RLU | Luminescence Raw (Kinase-Glo) (inhibitor 0.00976562 mM, sheet Sil_Pred3, read 3): 88068.9 and 93660.9 and 91592.3 | Luminescence Raw (Kinase-Glo) (inhibitor 0.0195312 mM, sheet Sil_Pred3, read 3): 91367.4 and 97331.9 and 97175 | Luminescence Raw (Kinase-Glo) (inhibitor 0.0390625 mM, sheet Sil_Pred3, read 3): 94347.3 and 94052.1 and 92142.9 | Luminescence Raw (Kinase-Glo) (inhibitor 0.078125 mM, sheet Sil_Pred3, read 3): 98578.2 and 105295 and 104564 | Luminescence Raw (Kinase-Glo) (inhibitor 0.15625 mM, sheet Sil_Pred3, read 3): 97978.5 and 103671 and 102378 | Luminescence Raw (Kinase-Glo) (inhibitor 0.3125 mM, sheet Sil_Pred3, read 3): 103442 and 105117 and 104861 | Luminescence Raw (Kinase-Glo) (inhibitor 0.625 mM, sheet Sil_Pred3, read 3): 118041 and 120665 and 116088 | Luminescence Raw (Kinase-Glo) (inhibitor 0.00976562, sheet Sil_Pred1, read 1): 100407 and 106564 and 102910 | Luminescence Raw (Kinase-Glo) (inhibitor 0.00976562, sheet Sil_Pred2, read 2): 90625.3 and 98037.5 and 95030.3 | Luminescence Raw (Kinase-Glo) (inhibitor 0.0195312, sheet Sil_Pred1, read 1): 105846 and 111118 and 110378 | Luminescence Raw (Kinase-Glo) (inhibitor 0.0195312, sheet Sil_Pred2, read 2): 95809.4 and 101447 and 100168 | Luminescence Raw (Kinase-Glo) (inhibitor 0.0390625, sheet Sil_Pred1, read 1): 108782 and 106859 and 106809 | Luminescence Raw (Kinase-Glo) (inhibitor 0.0390625, sheet Sil_Pred2, read 2): 97258.4 and 97956.1 and 97225.8 | Luminescence Raw (Kinase-Glo) (inhibitor 0.078125, sheet Sil_Pred1, read 1): 114996 and 120390 and 121203 | Luminescence Raw (Kinase-Glo) (inhibitor 0.078125, sheet Sil_Pred2, read 2): 101568 and 107854 and 109541 | Luminescence Raw (Kinase-Glo) (inhibitor 0.15625, sheet Sil_Pred1, read 1): 112780 and 119367 and 115572 | Luminescence Raw (Kinase-Glo) (inhibitor 0.15625, sheet Sil_Pred2, read 2): 101289 and 108375 and 104275 | Luminescence Raw (Kinase-Glo) (inhibitor 0.3125, sheet Sil_Pred1, read 1): 120905 and 121070 and 122162 | Luminescence Raw (Kinase-Glo) (inhibitor 0.3125, sheet Sil_Pred2, read 2): 107913 and 110173 and 110911 | Luminescence Raw (Kinase-Glo) (inhibitor 0.625 (mM per sheet Pred3), sheet Kinase-Glo802124_Sil_Pred1, read 1, triplicate wells): 138550 and 138736 and 130936 | Luminescence Raw (Kinase-Glo) (inhibitor 0.625, sheet Sil_Pred2, read 2): 122997 and 124612 and 121493
